{
  "source": "patent US20240180972A1",
  "about": "“HUMAN PLURIPOTENT STEM CELL-DERIVED SECRETOME AS A BIOLOGIC FOR PREVENTION AND TREATMENT OF NEURODEGENERATIVE AND APOPTOTIC DISEASES” (The Regents of the University of California, priority 2021, published 2024)",
  "key": {"OCT4, NANOG": {"tested_on": "OCT4, NANOG", "assay": "Pluripotency marker expression (qRT-PCR) in iPSCs after epigenetic modifiers", "type": "cell-based, human", "conditions": "iPSCs treated 3 days: 5 μM Nanomycin A, 10 μM LSD1 inhibitor, 5 μM 5-Azacytidine, 10 μM GSK126", "description": "Total RNA was extracted using the RNeasy mini kit (Qiagen), and the SuperScript III First-Strand Synthesis System (Invitrogen) was used to synthesize cDNA according to the manufacturer's instructions. Real-time PCR was performed on a Bio-Rad iQ5 real-time PCR machine.\n(§1) For the collection of CM, separate cultures of hiPSCs were set up for 3 days with one of the following small molecules: 5 μM Nanomycin A (A8191, Apexbio), 10 μM LSD1 inhibitor (489476, Millipore-Sigma), 5 μM 5-Azacytidine (C832A53, Thomas Scientific), and 10 μM GSK126 (67-905, Tocris). After 3 days of treatment, CM was collected (without the inhibitors) using the same protocol as described above."}, "[1]": {"tested_on": "human motor neurons (MNs)", "assay": "MTT viability and Annexin V apoptosis assays of human motor neurons exposed to H2O2", "type": "cell-based", "description": "The process of MNP and MN differentiation was as published (61). Briefly, hPSCs were detached by 0.5 mM EDTA and split 1:10 on Matrigel-coated plates (1:50 dilution). After one day, the Essential 8 was changed to neural inducing medium containing neural basal medium (NBM) plus 3 μM CHIR99021 (Tocris), 2 μM LDN-193189 (Tocris) and 3 μM SB431542 (Stemgent). The NBM is composed of DMEM/F12, Neurobasal medium (FisherScientific) at 1:1, N2, B27, 0.1 mM ascorbic acid (Millipore-Sigma), 1× Glutamax and 1× penicillin/streptomycin (all from Invitrogen). The inducing medium was maintained for 5 days and changed every other day. On day 5, the cultured cells were split at 1:6 with Accutase and cultured in NBM containing 3 μM CHIR99021, 2 μM SB431542, 0.1 μM retinoic acid (RA, Stemgent) and 0.5 μM purmorphamine (Pur, Stemgent). […]\n[…] A SpectraMax iD3 Multi-Mode Microplate Reader (Molecular Devices) was used for measuring fluorescence intensity (560/590 nm).\nThe apoptotic assay of fibroblasts was by Annexin V-CF Blue/7-AAD Apoptosis Detection Kit (ab214663, Abcam) according to the manufacturer's protocol. […] Finally, the stained samples were analyzed on a Guava Easycyte Flowcytometer (Millipore-Sigma) at an excitation wavelength of 488 nm and emission wavelengths of 525 and 625 nm. […] The stained plate was analyzed on a SpectraMax iD3 Multi-Mode Microplate Reader (495/525 nm). […]"}, "IMR90 fibroblasts": {"tested_on": "IMR90 fibroblasts", "assay": "MTT viability assay of IMR90 fibroblasts (H2O2, hESC-CM, dF-CM)", "type": "cell-based", "conditions": "200 μM H2O2", "from_the_text": "hESC conditioned medium was previously shown to enhance myogenic and neurogenic responses of tissue precursor cells (43, 44), but the effects on cell viability were less studied. We decided to explore a protective role of hESC conditioned medium (hESC-CM) when cells experience oxidative damage, which is physiologically and clinically relevant in a number of human diseases (56, 57). To set up this experimental system, we first performed dose response studies in IMR90 fibroblasts to varying concentrations of H2O2 and of hESC-CM using an MTT assay.\nWe then tested eight experimental cohorts, e.g., 200 μM H2O2 alone or in combination with 30% hESC-CM or CM from hESC-derived fibroblasts (dF-CM) (43) and controls for the various culture medium formulations (FIG. 1, panel C).\nWhen cells were grown to 70% confluence, they were subcultured at 1/5 dilution for later passaging.\nAfter H2O2 and/or CM or CM-derived factors treatment, the number of viable cells was determined by a resorufin based assay using the commercially available CellTiter-Blue® cell viability assay (G8080, Promega), as per the manufacturer's protocol. MNs were cultured in a 96-well plate at a cell density of 2×10^4 and treated with H2O2 and/or CMs for 24 hours before performing the viability assay. A SpectraMax iD3 Multi-Mode Microplate Reader (Molecular Devices) was used for measuring fluorescence intensity (560/590 nm). […]"}, "ALS-MNPs": {"tested_on": "ALS-MNPs", "assay": "Viability (MTT) and apoptosis (Annexin V) of H2O2 exposed ALS-MNPs, incl. epigenetic inhibitors screen", "type": "cell-based, human", "description": "[…] MNs were cultured in a 96-well plate at a cell density of 2×10^4 and treated with H2O2 and/or CMs for 24 hours before performing the viability assay. A SpectraMax iD3 Multi-Mode Microplate Reader (Molecular Devices) was used for measuring fluorescence intensity (560/590 nm).\nThe apoptosis assay of fibroblasts was by Annexin V-CF Blue/7-AAD Apoptosis Detection Kit (ab214663, Abcam) according to the manufacturer's protocol. Briefly, cells were detached using 0.05% trypsin and washed twice with PBS. Then, samples were resuspended in 1× annexin-binding buffer and incubated with 5 μL Annexin V-FITC and 5 μL 7-amino-actinomycin D (7AAD) for 15 min at 37° C., avoiding light. Finally, the stained samples were analyzed on a Guava Easycyte Flowcytometer (Millipore-Sigma) at an excitation wavelength of 488 nm and emission filters of 525 and 625 nm. For MNs, the apoptotic assay was conducted on two different markers, FITC-conjugated-annexinV (ab201540) or Cleaved caspase 3 (9669S). For annexinV detection, MNs in 96-well plates were washed twice with PBS. Then, 100 μL Annexin V binding buffer was added with 5 μL Annexin V-FITC for 5 min incubation at 37° C., avoiding light. The stained plate was analyzed on a SpectraMax iD3 Multi-Mode Microplate Reader (490/525 nm). For the Cleaved caspase 3, the immunofluorescence protocol was used.\nas §1\nBased on the absence of neuroprotective activity in the differentiated progeny of iPSCs, we decided to confirm and mechanistically extrapolate the relationship between the protective effects and pluripotency. […] To follow on the requirement for pluripotency, we employed a screen with inhibitors of pluripotency that modify the epigenetic states of iPSCs. […]"}, "[2]": {"conditions": "iPSCs treated 3 days with 10 μM GSK126 before CM collection, N=4, P<0.01"}},
  "data": [
    {"smiles": "Nc1ncn([C@@H]2O[C@H](CO)[C@@H](O)[C@H]2O)c(=O)n1", "note": "[5Aza, 5-Azacytidine]", "values": [
      {"measurement": "Expression of OCT4 compared to the untreated groups (WTC11 and CS07)", "setting": "OCT4, NANOG", "result": "significantly decreased"}
    ]},
    {"smiles": "C[C@@H]1O[C@@H](CC(=O)O)CC2=C1C(=O)c1c(O)cccc1C2=O", "note": "[NaA, Nanomycin A]", "values": [
      {"measurement": "Expression of OCT4 compared to the untreated groups (WTC11 and CS07)", "setting": "OCT4, NANOG", "result": "significantly decreased"}
    ]},
    {"smiles": "OO", "note": "[H2O2]", "values": [
      {"measurement": "Viability (MTT) of human MNs with H2O2 alone or co-treated with CM or fraction", "setting": "[1]; H2O2, 200 μg/ml HBPs, unfractionated CM, N=4", "result": "0.49±0.01"},
      {"measurement": "Motor neuron viability after H2O2 treatment", "setting": "[1]; human MNs, 200 μM H2O2", "result": "below 50%"},
      {"measurement": "Cell viability (MTT) after H2O2 treatment", "setting": "IMR90 fibroblasts", "result": "below 50%"},
      {"measurement": "Cell viability after H2O2 treatment, normalized to the values at the 0 concentration", "setting": "IMR90 fibroblasts", "result": "below 0.5"}
    ]},
    {"smiles": "CC[C@H](C)n1cc(C)c2c(C(=O)NCc3c(C)cc(C)[nH]c3=O)cc(-c3ccc(N4CCNCC4)nc3)cc21", "note": "[GSK126]", "values": [
      {"measurement": "Expression of OCT4 compared to the untreated groups (WTC11 and CS07)", "setting": "OCT4, NANOG", "result": "the decrease was not significant"},
      {"measurement": "Effect of treating ALS iPSCs with the epigenetic inhibitor on the neuroprotective activity of their CM", "setting": "ALS-MNPs; MNPs exposed to H2O2, pre-treated with CM", "result": "significantly reduced the neuroprotective activity"},
      {"measurement": "Apoptosis (Annexin V) of H2O2 exposed ALS-MNPs treated with CM of ALS iPSCs without or with inhibitor pre-treatment", "setting": "ALS-MNPs; [2]", "result": "2.65±0.23"},
      {"measurement": "Viability (MTT) of H2O2 exposed ALS-MNPs treated with CM of ALS iPSCs without or with inhibitor pre-treatment", "setting": "ALS-MNPs; [2]", "result": "0.47±0.02"}
    ]}
  ]
}
